The record followed here is paper PMC11913174 (Organic & biomolecular chemistry, 2024).

Test [1] concerns 3D7 (wild-type) parasites. As to the kind of experiment: Antiplasmodial dose-response against 3D7. The settings on record: Plasmodium falciparum, 3D7, read-out: EC50 against 3D7. Format: cell-based.
For test [2], the system named is chloroquine-resistant Dd2 Plasmodium falciparum parasites. As to the kind of experiment: SYBR Green I antiplasmodial assay against chloroquine-resistant Dd2 parasites. The format is cell-based. The settings on record: DD2, read-out: EC50 against Dd2.

Molecules are shown by their SMILES.

What is called EC50 is the concentration that produces a half-maximal response.

On to `COC(=O)[C@H]1[C@H]2C[C@@H]3c4[nH]c5cc(OC)ccc5c4CCN3C[C@H]2C[C@@H](OC(=O)c2cc(OC)c(OC)c(OC)c2)[C@@H]1OC` [reserpine], for which the EC50 in test [1] and in test [2] was greater than 100 µM in each case.
